In PMC3642162 (FEBS Open Bio, 2012):

What was measured:
human TRα-1 and TRβ-1 = test: TR biosensors; format: cell-based; conditions: both biosensor strains
TRα and TRβ = conditions: cited from earlier work
human TRα-1 = target: T1, human TRα-1 (Homo sapiens, UniProt P10827); format: cell-based
T1 sequence (P10827 149-407 isoform P10827-2): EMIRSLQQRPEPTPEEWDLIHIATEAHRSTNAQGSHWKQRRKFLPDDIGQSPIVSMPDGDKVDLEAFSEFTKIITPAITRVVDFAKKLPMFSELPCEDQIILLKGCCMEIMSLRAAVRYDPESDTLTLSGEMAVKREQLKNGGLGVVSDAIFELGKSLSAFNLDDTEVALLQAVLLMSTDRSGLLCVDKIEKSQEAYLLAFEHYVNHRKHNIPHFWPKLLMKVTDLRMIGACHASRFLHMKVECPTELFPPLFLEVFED

TRα = conditions: transcriptional activation assay; cited from earlier work
TRβ = conditions: cited from earlier work
human ER β = human ER β biosensor, relative to 100% for 17-β-estradiol; cited from earlier work
porcine ER β = porcine ER β biosensor; cited from earlier work

Structure (SMILES)	TR biosensors, qualitative activity (human TRα-1 and TRβ-1)	Other methods, reported activity (TRα and TRβ)	also measured
Cc1cc(OCC(=O)O)cc(C)c1Cc1ccc(O)c(C(C)C)c1 [GC-1, 3,5-dimethyl-4-(4′-hydroxy-3′-isopropylbenzyl)-phenoxy acetic acid]	Agonist, TRβ selective	Agonist, TRβ selective	EC50T3/EC50Ligand·100% (human TRα-1): 89.66%; Detection limit (lowest concentration giving unambiguous growth signal) (human TRα-1; TRα biosensor, visual inspection of dose-response curves): […]; Z′ (human TRα-1; pMIT::TRα-1, Z′ factor, highest vs lowest ligand concentration): 0.79; EC50 (TRα): […]
CC(C)c1cc(Oc2c(Cl)cc(CC(=O)O)cc2Cl)ccc1O [KB-141, 3,5-dichloro-4-(4-hydroxy-3-isopropylphenoxy) phenylacetic acid]	Agonist, TRβ selective	Agonist, TRβ selective	
N[C@@H](Cc1cc(I)c(Oc2ccc(O)c(I)c2)c(I)c1)C(=O)[O-].O.[Na+] [T3, 3,3′,5-triiodo-L-thyronine sodium salt hydrate]	Agonist	Agonist	
O=C(O)Cc1cc(I)c(Oc2ccc(O)c(I)c2)c(I)c1 [Triac, 3,3′,5-triiodothyroacetic acid]	Agonist, TRβ selective	Agonist, TRβ selective	Affinity higher than T3 (TRβ): approximately 3 fold; Potency higher than T3 (TRα and TRβ; binding to TRβ): 6 fold
CC(C)(c1ccc(O)cc1)c1ccc(O)cc1 [bisphenol A]			Relative binding affinity (RBA=EC50Estradiol/EC50Ligand×100 %) (human ER β): 1.15%; Relative binding affinity (RBA=EC50Estradiol/EC50Ligand×100 %) (porcine ER β): 0.13%
